# Columns and labels:
# human mGluR2 receptor = target: T1, human mGluR2 receptor (Homo sapiens, UniProt Q14416); assay: [35S]GTPγS binding assay (PAM assay), membranes from CHO cells transfected with human mGluR2; assay type: biochemical; details: in presence of glutamate at predetermined EC25 concentration; averages of duplicate values of 11-concentration response curves; read-out: GTPγS - hR2 PAM pEC50 (converted)
# T1 construct: expressed in transfected cells; host or cells: CHO cells
# Excerpt: The compounds provided in the present invention are positive allosteric modulators of mGluR2. These compounds appear to potentiate glutamate responses by binding to an allosteric site other than the glutamate binding site. The response of mGluR2 to a concentration of glutamate is increased when compounds of Formula (I) are present. Compounds of Formula (I) are expected to have their effect substantially at mGluR2 by virtue of their ability to enhance the function of the receptor. The behaviour of positive allosteric modulators tested at mGluR2 using the [^35S]GTPγS binding assay method described below and which is suitable for the identification of such compounds, and more particularly the compounds according to Formula (I), are shown in Table 2.
# The [^35S]GTPγS binding assay is a functional membrane-based assay used to study G-protein coupled receptor (GPCR) function whereby incorporation of a non-hydrolysable form of GTP, [^35S]GTPγS (guanosine 5′-triphosphate, labelled with […] ^35S), is measured. The G-protein α subunit catalyzes the exchange of guanosine 5′-diphosphate (GDP) by guanosine triphosphate (GTP) and on activation of the GPCR by an agonist, [^35S]GTPγS, becomes incorporated and cannot be cleaved to continue the exchange cycle (Harper (1998) Current Protocols in Pharmacology 2.6.1-10, John Wiley & Sons, Inc.). […] Here we describe the use of the [^35S]GTPγS binding assay using membranes from cells transfected with the human mGluR2 receptor and adapted from Schaffhauser et al ((2003) Molecular Pharmacology 4:798-810) for the detection of the positive allosteric modulation (PAM) properties of the compounds of this invention.
# CHO-cells were cultured to pre-confluence and stimulated with 5 mM butyrate for 24 hours, prior to washing in PBS, and then collected by scraping in homogenisation buffer (50 mM Tris-HCl buffer, pH 7.4, 4° C.). […] Protein concentration was determined by the Bradford method (Bio-Rad, USA) with bovine serum albumin as standard.
# Measurement of mGluR2 positive allosteric modulatory activity of test compounds in membranes containing human mGluR2 was performed using frozen membranes that were thawed and briefly homogenized prior to pre-incubation in 96-well microplates (15 μg/assay well, 30 minutes, 30° C.) in assay buffer (50 mM HEPES pH 7.4, 100 mM NaCl, 3 mM MgCl2, 50 μM GDP, 10 μg/ml saponin,) with increasing concentrations of positive allosteric modulator (from 0.3 nM to 50 μM) and either a minimal pre-determined concentration of glutamate (PAM assay), or no added glutamate. […] Filters were then air-dried, and 40 μl of liquid scintillation cocktail (Microscint-O) was added to each well, and membrane-bound [^35S]GTPγS was measured in a 96-well scintillation plate reader (Top-Count, Perkin-Elmer, USA). […]
# T1 sequence (Q14416 19-872): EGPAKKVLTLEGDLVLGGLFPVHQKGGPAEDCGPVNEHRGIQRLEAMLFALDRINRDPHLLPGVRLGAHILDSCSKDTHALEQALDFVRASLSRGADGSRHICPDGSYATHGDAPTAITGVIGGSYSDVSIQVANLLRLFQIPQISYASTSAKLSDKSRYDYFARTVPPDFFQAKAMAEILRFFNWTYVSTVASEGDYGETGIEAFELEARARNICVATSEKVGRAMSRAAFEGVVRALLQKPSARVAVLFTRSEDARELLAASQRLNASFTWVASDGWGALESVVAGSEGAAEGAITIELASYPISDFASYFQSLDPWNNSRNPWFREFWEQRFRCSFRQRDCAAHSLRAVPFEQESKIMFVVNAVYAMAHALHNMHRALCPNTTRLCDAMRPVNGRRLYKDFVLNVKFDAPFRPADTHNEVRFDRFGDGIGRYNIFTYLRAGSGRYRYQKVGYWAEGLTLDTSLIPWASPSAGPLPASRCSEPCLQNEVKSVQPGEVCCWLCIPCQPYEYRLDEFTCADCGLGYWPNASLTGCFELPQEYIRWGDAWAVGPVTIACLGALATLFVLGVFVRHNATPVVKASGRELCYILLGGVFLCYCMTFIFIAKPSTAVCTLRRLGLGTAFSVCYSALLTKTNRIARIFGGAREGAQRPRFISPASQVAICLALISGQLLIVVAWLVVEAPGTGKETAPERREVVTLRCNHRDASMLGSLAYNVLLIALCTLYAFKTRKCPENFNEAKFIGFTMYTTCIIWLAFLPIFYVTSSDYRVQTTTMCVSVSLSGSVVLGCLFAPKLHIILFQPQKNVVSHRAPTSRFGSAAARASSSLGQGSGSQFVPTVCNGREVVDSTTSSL
Compound,EC50 (human mGluR2 receptor),melting point
"CCCCn1ccc(N2C[C@@H]3[C@H](C2)[C@H]3c2ccccc2)c(Cl)c1=O [Compound E4, (2aα,3α,3aα)-1-Butyl-3-chloro-4-(6-phenyl-3-aza-bicyclo[3.1.0]hex-3-yl)-1H-pyridin-2-one]",89.1 nM,185.9 °C
"O=c1c(Cl)c(N2CC3[C@H](C2)[C@H]3c2ccccc2)ccn1CC1CC1 (stereo partly drawn) [Compound E1, (2aα,3α,3aα)-3-Chloro-1-cyclopropylmethyl-4-(6-phenyl-3-aza-bicyclo[3.1.0]hex-3-yl)-1H-pyridin-2-one]",275 nM,172.2 °C
CCCCn1ccc(N2C[C@@H]3[C@H](COc4cc(Cl)ccc4Cl)[C@@H]3C2)c(Cl)c1=O [Compound E3],126 nM,
CCCCn1ccc(N2C[C@@H]3[C@@H](COc4cc(Cl)ccc4Cl)[C@@H]3C2)c(Cl)c1=O [Compound E2],123 nM,
